# Experimental data taken from US20100160370A1, “METHOD OF TREATMENT AND PHARMACEUTICAL COMPOSITIONS” (Gilead Sciences, Inc., priority 2008, published 2010).
# Experiments:
# Format in all cases: in vivo
# [1] = test system: collagen; test: Bleomycin rat model: lung collagen deposition (pepsin digest, SDS-PAGE densitometry); design: Collagen Response (Average collagen concentration): unit not given here; conditions: for Collagen Response (Average collagen concentration): oral gavage twice a day, 28 day, lung tissue
# Excerpt: The bleomycin rat model was used in this study to evaluate (R)-N-((2S,3S)-2-(fluoromethyl)-2-hydroxy-5-oxo-tetrahydrofuran-3-yl)-5-isopropyl-3-(isoquinolin-1-yl)-4,5-dihydroisoxazole-5-carboxamide as a possible therapeutic drug for the treatment of idiopathic pulmonary fibrosis (IPF) and other fibrotic lung diseases. The bleomycin animal model of IPF is an art-recognized model for evaluating potentially therapeutic drugs for the treatment of IPF (see, e.g., F. Chua et al., Pulmonary Fibrosis, Searching for Model Answers, Am. J. Respir. Cell. Mol. Biol., 33:9-13 (2005); A. Moeller et al., The bleomycin animal model: A useful tool to investigate treatment options for idiopathic pulmonary fibrosis, International Journal of Biochemistry and Cell Biology, 40: 362-382 (2008)). The rats receiving the test compound were gavaged twice a day from day zero (the day of bleomycin administration) through the day prior to necropsy. On days 14 and 28 the designated rats were euthanized with a pentobarbital-based solution, the chest cavity was opened and examined for gross pathology. The right lung was removed, canulated, and lavaged for determination of white blood cell counts. The lavaged tissue was flash frozen and analyzed for collagen content by measuring the amount of collagen. The left lung was fixed for histopathology. Homogenates from the lungs were analyzed for cytokines. […] Gels were then stained with Coomassie Blue and stained bands migrating coincident with type I collagen standards were compared by densitometry to the Coomassie stained collagen standards in order to quantitate collagen content. Under the reducing conditions employed in the analysis, the quantitated lung sample gel bands represented the alpha 1 and 2 chains of type I collagen and the alpha 1 chain of type Ill collagen. Blots were scanned with a BioRad GS-800 Scanner and their density was quantitated using “Quantity One” computer software from BioRad. Results were averaged for each treatment group and expressed as micrograms of collagen/mg of lung tissue.
# [2] = test system: bleomycin rat model; test: Bleomycin rat model: white blood cell counts in lung lavage; conditions: for Lymphocyte Count (Average) / Macrophage Count (Average) / Neutrophil Count (Average) / Total Cell Count (Average): oral gavage twice a day, lung lavage
# Excerpt: The bleomycin rat model was used in this study to evaluate (R)-N-((2S,3S)-2-(fluoromethyl)-2-hydroxy-5-oxo-tetrahydrofuran-3-yl)-5-isopropyl-3-(isoquinolin-1-yl)-4,5-dihydroisoxazole-5-carboxamide as a possible therapeutic drug for the treatment of idiopathic pulmonary fibrosis (IPF) and other fibrotic lung diseases. The bleomycin animal model of IPF is an art-recognized model for evaluating potentially therapeutic drugs for the treatment of IPF (see, e.g., F. Chua et al., Pulmonary Fibrosis, Searching for Model Answers, Am. J. Respir. Cell. Mol. Biol., 33:9-13 (2005); A. Moeller et al., The bleomycin animal model: A useful tool to investigate treatment options for idiopathic pulmonary fibrosis, International Journal of Biochemistry and Cell Biology, 40: 362-382 (2008)). In this Example, (R)-N-((2S,3S)-2-(fluoromethyl)-2-hydroxy-5-oxo-tetrahydrofuran-3-yl)-5-isopropyl-3-(isoquinolin-1-yl)-4,5-dihydroisoxazole-5-carboxamide is referred to as the “test compound” for ease of reference. […] The abbreviations used in Table 1 are Bleo (bleomycin), IT (intratracheal), mg/kg (milligram per kilogram), N (number) and n/a (not applicable). [table] The rats receiving the test compound were gavaged twice a day from day zero (the day of bleomycin administration) through the day prior to necropsy. On days 14 and 28 the designated rats were euthanized with a pentobarbital-based solution, the chest cavity was opened and examined for gross pathology. The right lung was removed, canulated, and lavaged for determination of white blood cell counts. The lavaged tissue was flash frozen and analyzed for collagen content by measuring the amount of collagen. The left lung was fixed for histopathology. Homogenates from the lungs were analyzed for cytokines. Intratracheal administration of bleomycin induces a two-stage response in the lungs of rats. The first stage is an inflammatory response which peaks at about 14 days after bleomycin administration, and the second stage is a fibrotic response that is apparent by 28 days after bleomycin administration. The inflammation markers that were measured in this study were the influx of leukocytes (neutrophils, macrophages and lymphocytes) into the airways, and the induction of the cytokines MCP-1 and MCP-3 (where MCP stands for Monocyte Chemoattractant Protein). Tables 2, 3, 4 and 5 show the total cell count, neutrophil count, macrophage count and the lymphocyte count, respectively, from the treated rats at 14 days and 28 days (Values for cell numbers are ×10^6). The abbreviation SEM stands for Standard Error of the Mean. In Tables 2 thru 8 the t-test was an unpaired, two-tailed, t-test performed using a GraphPad Prism version 5.01 for Windows (GraphPad Software, San Diego, Calif. USA).
# [3] = test system: MCP-1; test: Bleomycin rat model: MCP-1 level in bronchoalveolar lavage fluid (Luminex/Procarta cytokine assay); conditions: for MCP-1 concentration (Average): oral gavage twice a day, BAL
# Excerpt: (§1) The bleomycin rat model was used in this study to evaluate (R)-N-((2S,3S)-2-(fluoromethyl)-2-hydroxy-5-oxo-tetrahydrofuran-3-yl)-5-isopropyl-3-(isoquinolin-1-yl)-4,5-dihydroisoxazole-5-carboxamide as a possible therapeutic drug for the treatment of idiopathic pulmonary fibrosis (IPF) and other fibrotic lung diseases. The bleomycin animal model of IPF is an art-recognized model for evaluating potentially therapeutic drugs for the treatment of IPF (see, e.g., F. Chua et al., Pulmonary Fibrosis, Searching for Model Answers, Am. J. Respir. Cell. Mol. Biol., 33:9-13 (2005); A. Moeller et al., The bleomycin animal model: A useful tool to investigate treatment options for idiopathic pulmonary fibrosis, International Journal of Biochemistry and Cell Biology, 40: 362-382 (2008)).
# (§2) The rats receiving the test compound were gavaged twice a day from day zero (the day of bleomycin administration) through the day prior to necropsy. On days 14 and 28 the designated rats were euthanized with a pentobarbital-based solution, the chest cavity was opened and examined for gross pathology. The right lung was removed, canulated, and lavaged for determination of white blood cell counts. The lavaged tissue was flash frozen and analyzed for collagen content by measuring the amount of collagen. The left lung was fixed for histopathology. Homogenates from the lungs were analyzed for cytokines.
# (§3) Intratracheal administration of bleomycin induces a two-stage response in the lungs of rats. The first stage is an inflammatory response which peaks at about 14 days after bleomycin administration, and the second stage is a fibrotic response that is apparent by 28 days after bleomycin administration. The inflammation markers that were measured in this study were the influx of leukocytes (neutrophils, macrophages and lymphocytes) into the airways, and the induction of the cytokines MCP-1 and MCP-3 (where MCP stands for Monocyte Chemoattractant Protein). Tables 2, 3, 4 and 5 show the total cell count, neutrophil count, macrophage count and the lymphocyte count, respectively, from the treated rats at 14 days and 28 days (Values for cell numbers are ×10^6). The abbreviation SEM stands for Standard Error of the Mean. In Tables 2 thru 8 the t-test was an unpaired, two-tailed, t-test performed using a GraphPad Prism version 5.01 for Windows (GraphPad Software, San Diego, Calif. USA).
# (§4) Additionally, MCP-1 and MCP-3 levels in the rat Bronchoalveolar Lavage Fluid (BAL) were measured using Luminex xMap Technology CS1000 (Austin, Tex.) and a Procarta Cytokine Assay Kit (rat 15-plex) manufactured by Panomics, Inc. (Fremont, Calif.) that included analytes for: IL-1α, IL-1β, IL-6, TNFα, KC, MCP-1, MCP-3, MIP-1α, RANTES, VEGF, TGFb, IL-4, IL-10, IFNg, and GM-CSF. Three replicate assay wells (n=3) were analyzed for each experimental sample following the manufacturer's instructions. Quantitation of each analyte was determined against standard curves using MiraiBio's (Alameda, Calif.) Masterplex QT v 3.0 software. For all samples, background signals in the absence of BAL were determined and subtracted from signals obtained in the presence of BAL to obtain the net signal. Statistical significance of biological studies was tested with a two-tailed Student t-test. Tables 6 and 7 show the concentrations of cytokines MCP-1 and MCP-3, respectively, in the airways of the treated rats, expressed in pg/mL.
# [4] = test system: MCP-3; test: Bleomycin rat model: MCP-3 level in bronchoalveolar lavage fluid (Luminex/Procarta cytokine assay); conditions: for MCP-3 concentration (Average): oral gavage twice a day, BAL
# Excerpt: as §1, §2, §3, §4
# [5] = orally administered, bleomycin-treated rats, result in words
# [6] = Bleomycin IT 3.5 mg/kg + 10 mg/Kg test compound, 14 day
# [7] = Bleomycin IT 3.5 mg/kg + 10 mg/Kg test compound, 28 day
# [8] = Bleomycin IT 3.5 mg/kg + 30 mg/Kg test compound, 14 day
# [9] = Bleomycin IT 3.5 mg/kg + 30 mg/Kg test compound, 28 day
# [10] = bleomycin-treated rats, result in words
smiles,measurement,setting,value
"CC(C)[C@@]1(C(=O)N[C@H]2CC(=O)O[C@]2(O)CF)CC(c2nccc3ccccc23)=NO1 [Test Compound, (R)-N-((2S,3S)-2-(fluoromethyl)-2-hydroxy-5-oxo-tetrahydrofuran-3-yl)-5-isopropyl-3-(isoquinolin-1-yl)-4,5-dihydroisoxazole-5-carboxamide]",Collagen Response (Average collagen concentration),[1]; Bleomycin IT 3.5 mg/kg + 10 mg/Kg test compound,2.353
same,Collagen Response (Average collagen concentration),[1]; Bleomycin IT 3.5 mg/kg + 30 mg/Kg test compound,3.891
same,deposition of collagen during the fibrotic phase of the bleomycin response,[1]; [5],inhibited the deposition of collagen
same,Lymphocyte Count (Average),[2]; [6],0.002 ×10^6
same,Macrophage Count (Average),[2]; [6],0.415 ×10^6
same,Neutrophil Count (Average),[2]; [6],0.006 ×10^6
same,Total Cell Count (Average),[2]; [6],1.988 ×10^6
same,Lymphocyte Count (Average),[2]; [7],0.007 ×10^6
same,Macrophage Count (Average),[2]; [7],0.442 ×10^6
same,Neutrophil Count (Average),[2]; [7],0.012 ×10^6
same,Total Cell Count (Average),[2]; [7],2.276 ×10^6
same,Lymphocyte Count (Average),[2]; [8],0.003 ×10^6
same,Macrophage Count (Average),[2]; [8],0.285 ×10^6
same,Neutrophil Count (Average),[2]; [8],0.005 ×10^6
same,Total Cell Count (Average),[2]; [8],1.482 ×10^6
same,Lymphocyte Count (Average),[2]; [9],0.004 ×10^6
same,Macrophage Count (Average),[2]; [9],0.476 ×10^6
same,Neutrophil Count (Average),[2]; [9],0.008 ×10^6
same,Total Cell Count (Average),[2]; [9],2.207 ×10^6
same,influx of lymphocytes into the airways,[2]; [5],inhibited the influx
same,influx of macrophages into the airways,[2]; [5],inhibited the influx
same,influx of neutrophils into the airways,[2]; [5],inhibited the influx
same,MCP-1 concentration (Average),[3]; [6],66.122 pg/mL
same,MCP-1 concentration (Average),[3]; [7],12.800 pg/mL
same,MCP-1 concentration (Average),[3]; [8],13.838 pg/mL
same,MCP-1 concentration (Average),[3]; [9],11.844 pg/mL
same,production of MCP-1 in the lungs,[3]; [10],inhibited the production
same,MCP-3 concentration (Average),[4]; [6],37.987 pg/mL
same,MCP-3 concentration (Average),[4]; [7],7.075 pg/mL
same,MCP-3 concentration (Average),[4]; [8],5.668 pg/mL
same,MCP-3 concentration (Average),[4]; [9],6.497 pg/mL
same,production of MCP-3 in the lungs,[4]; [10],inhibited the production
